Literature values in Sander's compilation of Henry's law constants (doi:10.1016/s0016-7037(99)00330-0).

Experiment: Henry solubility constant Hcp at 298.15 K (mol/(m3 Pa))
Settings: reference: Plyasunov and Shock (2000); cited value

| Henry solubility constant Hcp | Structure (SMILES) |
| --- | --- |
| 5.3e-06 | CCCCCC1CCCC1 [pentylcyclopentane] |
| 5.6e-05 | C=CC [propene] |
| 0.00091 | CCCc1ccccc1 [propylbenzene] |
| 0.00075 | C#CC [propyne] |
| 9.3e-07 | CCCCCCCCCCCCCC [tetradecane] |
| 1.1e-05 | C[C@H]1CC[C@H](C)CC1 [trans-1,4-dimethylcyclohexane] |
| 4.9e-05 | CC1(C)C2CC3C(C2)C31C [tricyclene] |
| 0.00018 | CC1=CCC(C(C)C)C=C1 (stereo not drawn) [α-phellandrene] |
